From patent publication US8354438B2, “Neurological functions” (priority 2001, dated 2013)
Where “and” joins values, the source holds several entries; their conditions need not be identical. Equal entries are not always repeated.

What was measured:
[1] = test system: animals subject to hyperbaric oxygen; conditions: reported by Bondarenko; cited from earlier work
carnosinase = conditions: compared with the parent compound carnosine; Boldyrev 2000; cited from earlier work
[2] = test system: patients with autism, pervasive developmental disorder, brain injury, cerebral palsy and epilepsy; assay: Carnosine dietary supplement to improve cognitive functions impaired by neurological disorders (Example 2); type: in vivo, human; conditions: carnosine 200 mg to 2,000 mg per day, orally
Method: It is hypothesized that carnosine may improve cognitive functions of patients suffering from various disorders. These disorders include autism, pervasive developmental disorder, brain injury, cerebral palsy and epilepsy. There are currently no drugs or treatments available whose primary function is to elevate carnosine levels as a treatment for the previously mentioned disorders. Patients afflicted with the above disorders were treated with a dietary supplement of carnosine in dosages of 200 mg to 2,000 mg per day. The carnosine supplement is available in gel capsule form from Alfa Chem (Kings Point, N.Y.).
The carnosine supplement can be administered orally several times daily. The results indicated an increase in cognitive processing speed, an increase in language skills, and improved motor skills. Patients have increased their amount of speech and language and the level of maturity of speech.

adult clinical trials = conditions: among 691 cases of adult clinical trials; Matsukura and Tanaka 2000; cited from earlier work
[3] = test system: children with intractable seizures; assay: L-carnosine add-on therapy in children with intractable seizures, EEG and seizure frequency (Example 3); type: in vivo, human; conditions: after 10 weeks at 400 mg p.o. b.i.d.
Description: L-carnosine is an amino acid dipeptide (histidine and alanine), that may indirectly affect spike and wave discharges by altering GABA bioavailability or affecting copper and zinc influx at the cellular level. […] We hypothesized that carnosine ingestion would modulate homocarnosine in the brain, causing spike and wave activity to decrease and seizure control to improve. We gave L-carnosine to four patents as add-on therapy for intractable spike-wave discharge and documented changes in both clinical (overt seizures) and physiological (EEG) status.
Seven children (3 female, 4 male, age range 2-12) met inclusion criteria. All had intractable seizures for at least two years, had failed at least 3 anticonvulsants, had documented, abnormal generalized or secondarily generalized spike-wave, atypical absence, or Lennox-Gastaut Syndrome. All families signed written consent from an IRB approved protocol. All children were evaluated with a Baseline EEG on the same day they were started on 400 mg b.i.d. of L-carnosine. Carnosine from, for example, Alfa Chem in either powder or capsule form. Carnosine may also be obtained from MAYPRO (Purchase, N.Y.), as well as various other suppliers. Post-treatment EEG was undertaken after 10 weeks of L-carnosine therapy. No other concurrent medications were changed. All patients had failed multiple medication treatments prior to the addition of carnosine. These medications included valproic acid, topimirate, benzodiazepines, steroids, carbamazepine, phenytoin, zonisamide, lamotrigine, and phenobarbital.

[4] = test system: rat model genetically predisposed to audiogenic epilepsy; conditions: carnosine injected prior to acoustic stress; Stvolinsky and Dobrota 2000; cited from earlier work
[5] = test system: children with Autistic Spectrum Disorder; assay: 8 week double-blind placebo-controlled carnosine study in children with Autistic Spectrum Disorder (Example 4); type: in vivo, human; conditions: for Fax ratings (week 2 vs. week 6): on carnosine 400 mg twice a day, Mean (SD)
Description: The following protocol was designed to target the purported brain region of dysfunction in ASD, via supplementation with a naturally-occurring amino acid which is believed to act upon frontal lobe systems or GABA receptors. We sought to eliminate the “expectancy effect” of medication augmentation by enrolling children in a study so that both the clinicians and parents were blinded to group assignment.
Children were included for study if they met the following criteria: ages 3-12, prior diagnoses of Autistic Spectrum Disorder (including either Pervasive Developmental Disorder or Autistic Disorder, by DSMIVR). American Psychiatric Association. Diagnostic and Statistical Manual of Mental Disorders, 4th ed. Washington D.C., 1993. […] Children were enrolled in the study irrespective of cognitive ability level.
All children were tested at baseline in the following domains: expressive language (Expressive One Word Picture Vocabulary test, EOWPVT), receptive language (Receptive One Word Picture Vocabulary test, ROWPVT), autism severity ratings (Childhood Autism Rating Scale; CARS, and Gilliam Autism Rating Scales; GARS), and Clinical Global linpresssions (CGI) completed by parents. At baseline and eight-week testing, all children underwent the CARS, GARS, EOWPVT, ROWPVT, and CGI. Schopler, E., Reichler, R. J., Renner, B. R. The Childhood Autism Rating Scale: CARS. Los Angeles, Calif.: Western Psychological Sciences 1988. Gilliam, J. E. The Gilliam Autism Rating Scale: GARS. Austin, Tex.: Pro-Ed Inc. 1995. Gardner, M. F. Receptive One-Word Picture Vocabulary Test: ROWPVT. Novato, Calif.: Academic Therapy Publications 1985. Gardner, M. F. Expressive One-Word Picture Vocabulary Test (Revised): EOWPVT-R. Novato, Calif.: Academeic Therapy Publication 1990. Children were tested with their parents in the room of a pediatric neurology clinic in a room dedicated to assessment. Parents signed informed written consent (approved by the Lake Forest Hospital Institutional Review Board) before being randomly assigned to either active agent or placebo, and reporting of adverse events was explained per office emergency policy. Because of our prior experience with the substance in an open-label format, we were able to caution regarding the following potential adverse events: hyperactivity, excitability
Both placebo and active substance were identical in powdered appearance, without taste or smell. All pills were contained by a gelatin capsule; parents were instructed to mix the powder with either food or drink. Dosage of carnosine was 400 mg by mouth twice a day.
Every two weeks, parents faxed a CGI regarding their child. The CGI was a 5 point rating scale covering the following domains: (1) Socialization, interaction with others during play, (2) Spontaneous, expressive language or vocalizations, (3) Attention span, “focus”/eye contact, alertness level, (4) Agitation and hyperactivity or lethargy, energy level, Petroff, O. A. C. et al., Neurology 2001; 56:709-715. Coordination, body use, gross motor movements, (6) Anxiety, rigidity, preservation, adaptation to change. A score of “0” indicated “No Change”, a score of “5” indicated a “Great improvement.” Parents were not allowed to refer back to faxes from the prior two week period, so that each rating was essentially “blinded” to the week before. An overall baseline CGI was then compared with an ending CGI.
Thirty-one children (21 M, mean age=7.45; range 3.2-12.5) meeting inclusion criteria were enrolled in an 8 week, double-blind placebo-controlled study. Children were entered randomly into one of two groups: Group I (n=17) received a placebo for the first 8 weeks, while Group II (n=14) received the active substance. Children were assessed at Baseline in the following domains: […]

animals = conditions: both decreasing mortality and improving recovery; Stvolinsky and Dobrota 2000; cited from earlier work
[6] = 8-Week on carnosine 400 mg twice a day, n = 14, Mean (SD), vs baseline .01, vs placebo NS
[7] = 8-Week on carnosine 400 mg twice a day, n = 14, Mean (SD), vs baseline NS, vs placebo NS
[8] = Baseline, active carnosine group n = 14, Mean (SD)

In the case of `NCCCC(=O)N[C@@H](Cc1cnc[nH]1)C(=O)O` [homocarnosine, γ-Aminobutyryl-L-histidine], the “convulsions under hyperbaric oxygen” value [1] is given as “protects against the convulsions” and the rate of hydrolysis (carnosinase) is given as “negligible”.
With β-Alanlyl-L-histidine [carnosine] the “amount of speech and language and level of maturity of speech” value [2] was “increased”, the cognitive processing speed [2] was “increase” and the language skills [2] was “increase”. For the same molecule, the motor skills [2] was “improved”, the receptive language [2] was “improved” and the symptomatic side effects (adult clinical trials) was “no symptomatic side effects”. For the same molecule, the “patients with improved seizure frequency (of 7)” value [3] was 7 patients, the “children with decreased frequency of polyspikes” value ([3]; 7 children) was 2 children and the “children with improved background and decreased electrographic slow-spike and wave activity” value ([3]; 7 children) was 2 children. For the same molecule, the “children with improved secondarily generalized spike-wave activity” value ([3]; 7 children) was 1 child, the “children with no significant EEG changes” value ([3]; 7 children) was 2 children and the “children with documented improved EEG findings (of 7)” value ([3]; add-on) was 5 children. For the same molecule, the “patients with reported improvements in global cognition, behavior, and language function (of 7)” value ([3]; not evaluated formally) was 7 patients, the audiogenic seizures [4] was “moderation of such seizures” and the CGI ([5]; 8-Week on carnosine 400 mg by mouth twice a day, n = 14, Mean (SD), vs baseline .06, vs placebo NS) was 16.39 (4.36). For the same molecule, the GARS [5, 6] was 44.36 (14.94) and 44.35 (14.93), the “GARS Socialization Scale” value [5, 6] was 13.36 (6.58) and the “ROWPVT (age-adjusted)” value [5, 6] was 47.85 (28.37) and 47.86 (28.37). The “ROWPVT (raw)” value [5, 6] was 44.64 (26.56), the “GARS Communication Scale” value ([5]; 8-Week on carnosine 400 mg twice a day, n = 14, Mean (SD), vs baseline .03, vs placebo NS) was 18.14 (6.27) and the “GARS Behavior Scale” value ([5]; 8-Week on carnosine 400 mg twice a day, n = 14, Mean (SD), vs baseline .04, vs placebo NS) was 12.85 (5.95). For the same molecule, the CARS ([5]; 8-Week on carnosine 400 mg twice a day, n = 14, Mean (SD), vs baseline .07, vs placebo NS) was 29.75 (7.53), the “EOWPVT (age-adjusted)” value [5, 7] was 43.78 (28.22) and the “EOWPVT (raw)” value [5, 7] was 37.28 (25.66). For the same molecule, the CARS [5, 8] was 31.71 (6.55), the CGI [5, 8] was 14.50 (3.65) and the “EOWPVT (age-adjusted)” value [5, 8] was 40.71 (23.44). For the same molecule, the “EOWPVT (raw)” value [5, 8] was 35.36 (20.87), the GARS [5, 8] was 55.50 (16.35) and the “GARS Behavior Scale” value [5, 8] was 15.71 (6.65). The “GARS Communication Scale” value [5, 8] was 21.64 (7.99), the “GARS Socialization Scale” value [5, 8] was 18.14 (6.30) and the “ROWPVT (age-adjusted)” value [5, 8] was 40.57 (24.55). The “ROWPVT (raw)” value [5, 8] was 38.00 (23.68), the “side effects reported by parents” value ([5]; alleviated by decreasing the dose) was “only sporadic hyperactivity” and the “discontinuation of the study due to side effects” value ([5]; carnosine 400 mg twice a day, 8 weeks) was “Not a single child”. For the same molecule, the “receptive speech, socialization, and behavior in children with autistic spectrum disorders” value ([5]; supplementation with carnosine, 8 weeks) was “significantly improve”, the “Fax ratings (week 2 vs. week 6)” value ([5]; week 2 (column Baseline)) was 2.03 (2.24) and the “Fax ratings (week 2 vs. week 6)” value ([5]; week 6 (column 8-Week), vs week 2 .04) was 4.92 (5.69). For the same molecule, the “resistance towards ionizing radiation, hypobaric hypoxia, and supercooling” value (animals) was “enhances the resistance”.
